Measured values as given in patent publication US20240383874A1, “BENZENE RING DERIVATIVE, AND COMPOSITION AND PHARMACEUTICAL USE THEREOF” (Xizang Haisco Pharmaceutical Co., Ltd., priority 2020, published 2024).
Counter-ions that a name gives are not always drawn.

System: 22RV1 cells
Experiment: Experiment 2 on inhibiting 22RV1 cell proliferation (7 days, CellTiter-Glo)
Type: cell-based
Details: Homo sapiens, 22Rv1, 168 h, 1% css-FBS phenol red-free medium, incubated with compound 7 days, read-out: IC50 values on proliferation inhibition of 22RV1 cells
Summary of the method: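 22RV1 cells plated at 2000/well in phenol red-free medium with 1% css-FBS and treated next day with compound for 7 days at 37 °C. Viability read by CellTiter-Glo luminescence relative to DMSO vehicle; IC50 from dose-response fit.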

## Cn1c(=O)n(C2CCC(=O)NC2=O)c2cccc(CN3CCC(N4CCC5(CCN(c6nccc(COc7ccc(C(C)(C)c8cc(Cl)cc(C#N)c8)cc7)n6)CC5)CC4)CC3)c21 (stereo not drawn) [Compound 100 trifluoroacetate, 3-chloro-5-(2-(4-((2-(9-(1-((1-(2,6-dioxopiperidin-3-yl)-3-methyl-2-oxo-2,3-dihydro-1H-benzo[d]imidazol-4-yl)methyl)piperidin-4-yl)-3,9-diazaspiro[5.5]undecan-3-yl)pyrimidin-4-yl)methoxy)phenyl)propan-2-yl)benzonitrile]
  IC50: 577 nM

## Cn1c(=O)n(C2CCC(=O)NC2=O)c2cccc(CN3CCC4(CC3)CC(N3CCC5(CCN(c6nccc(COc7ccc(C(C)(C)c8cc(Cl)cc(C#N)c8)cc7)n6)CC5)CC3)C4)c21 (stereo not drawn) [Compound 101 trifluoroacetate, 3-chloro-5-(2-(4-((2-(9-(7-((1-(2,6-dioxopiperidin-3-yl)-3-methyl-2-oxo-2,3-dihydro-1H-benzo[d]imidazol-4-yl)methyl)-7-azaspiro[3.5]nonan-2-yl)-3,9-diazaspiro[5.5]undecan-3-yl)pyrimidin-4-yl)methoxy)phenyl)propan-2-yl)benzonitrile]
  IC50: 699 nM

## CCOc1c(Cl)cc(C(C)(C)c2ccc(OCc3ccnc(N4CCC(CN(C)C5CCN(c6ccc7c(c6)n(C)c(=O)n7C6CCC(=O)NC6=O)CC5)CC4)n3)cc2)cc1C#N (stereo not drawn) [Compound 102 trifluoroacetate, 3-chloro-5-(2-(4-((2-(4-(((1-(1-(2,6-dioxopiperidin-3-yl)-3-methyl-2-oxo-2,3-dihydro-1H-benzo[d]imidazol-5-yl)piperidin-4-yl)(methyl)amino)methyl)piperidin-1-yl)pyrimidin-4-yl)methoxy)phenyl)propan-2-yl)-2-ethoxybenzonitrile]
  IC50: 641 nM

## Cn1c(=O)n(C2CCC(=O)NC2=O)c2ccc(N3CCC(C4CCN(CC5CN(c6nccc(COc7ccc(C(C)(C)c8cc(Cl)cc(C#N)c8)cc7)n6)C5)CC4)CC3)cc21 (stereo not drawn) [Compound 103 trifluoroacetate, 3-chloro-5-(2-(4-((2-(3-((1′-(1-(2,6-dioxopiperidin-3-yl)-3-methyl-2-oxo-2,3-dihydro-1H-benzo[d]imidazol-5-yl)-[4,4′-bipiperidin]-1-yl)methyl)azetidin-1-yl)pyrimidin-4-yl)methoxy)phenyl)propan-2-yl)benzonitrile]
  IC50: 823 nM

## Cn1c(=O)n(C2CCC(=O)NC2=O)c2ccc(N3CCC(C4CCN(C5CCN(c6nccc(COc7ccc(C(C)(C)c8cc(Cl)cc(C#N)c8)cc7)n6)CC5)CC4)CC3)cc21 (stereo not drawn) [Compound 104 trifluoroacetate, 3-chloro-5-(2-(4-((2-(1″-(1-(2,6-dioxopiperidin-3-yl)-3-methyl-2-oxo-2,3-dihydro-1H-benzo[d]imidazol-5-yl)-[4,1′:4′,4″-terpiperidin]-1-yl)pyrimidin-4-yl)methoxy)phenyl)propan-2-yl)benzonitrile]
  IC50: 664 nM

## Cn1c(=O)n(C2CCC(=O)NC2=O)c2ccc(C3CCN(CC4CCN(c5nccc(COc6ccc(C(C)(C)c7cc(Cl)cc(C#N)c7)cc6)n5)CC4)CC3)cc21 (stereo not drawn) [Compound 105 trifluoroacetate, 3-chloro-5-(2-(4-((2-(4-((4-(1-(2,6-dioxopiperidin-3-yl)-3-methyl-2-oxo-2,3-dihydro-1H-benzo[d]imidazol-5-yl)piperidin-1-yl)methyl)piperidin-1-yl)pyrimidin-4-yl)methoxy)phenyl)propan-2-yl)benzonitrile]
  IC50: 575 nM

## Cn1c(=O)n(C2CCC(=O)NC2=O)c2ccc(C3CCN(C4CC5(CCN(c6nccc(COc7ccc(C(C)(C)c8cc(Cl)cc(C#N)c8)cc7)n6)CC5)C4)CC3)cc21 (stereo not drawn) [Compound 106 trifluoroacetate, 3-chloro-5-(2-(4-((2-(2-(4-(1-(2,6-dioxopiperidin-3-yl)-3-methyl-2-oxo-2,3-dihydro-1H-benzo[d]imidazol-5-yl)piperidin-1-yl)-7-azaspiro[3.5]nonan-7-yl)pyrimidin-4-yl)methoxy)phenyl)propan-2-yl)benzonitrile]
  IC50: 550 nM

## CCOc1c(Cl)cc(C(C)(C)c2ccc(OCc3ccnc(N4CCC5(CC4)CC(N4CCC(c6ccc7c(c6)n(C)c(=O)n7C6CCC(=O)NC6=O)CC4)C5)n3)cc2)cc1C#N (stereo not drawn) [Compound 107 trifluoroacetate, 3-chloro-5-(2-(4-((2-(2-(4-(1-(2,6-dioxopiperidin-3-yl)-3-methyl-2-oxo-2,3-dihydro-1H-benzo[d]imidazol-5-yl)piperidin-1-yl)-7-azaspiro[3.5]nonan-7-yl)pyrimidin-4-yl)methoxy)phenyl)propan-2-yl)-2-ethoxybenzonitrile]
  IC50: 526 nM

## Cn1c(=O)n(C2CCC(=O)NC2=O)c2ccc(C3CCN(CC4CCN(C5CC6(CCN(c7nccc(COc8ccc(C(C)(C)c9cc(Cl)cc(C#N)c9)cc8)n7)CC6)C5)CC4)CC3)cc21 (stereo not drawn) [Compound 108 trifluoroacetate, 3-chloro-5-(2-(4-((2-(2-(4-((4-(1-(2,6-dioxopiperidin-3-yl)-3-methyl-2-oxo-2,3-dihydro-1H-benzo[d]imidazol-5-yl)piperidin-1-yl)methyl)piperidin-1-yl)-7-azaspiro[3.5]nonan-7-yl)pyrimidin-4-yl)methoxy)phenyl)propan-2-yl)benzonitrile]
  IC50: 251 nM

## CCOc1c(Cl)cc(C(C)(C)c2ccc(OCc3ccnc(N4CCC5(CC4)CC(N4CCC(CN6CCC(c7ccc8c(c7)n(C)c(=O)n8C7CCC(=O)NC7=O)CC6)CC4)C5)n3)cc2)cc1C#N (stereo not drawn) [Compound 109 trifluoroacetate, 3-chloro-5-(2-(4-((2-(2-(4-((4-(1-(2,6-dioxopiperidin-3-yl)-3-methyl-2-oxo-2,3-dihydro-1H-benzo[d]imidazol-5-yl)piperidin-1-yl)methyl)piperidin-1-yl)-7-azaspiro[3.5]nonan-7-yl)pyrimidin-4-yl)methoxy)phenyl)propan-2-yl)-2-ethoxybenzonitrile]
  IC50: 330 nM

## COc1c(Cl)cc(C(C)(C)c2ccc(OCc3ccnc(N4CCC5(CC4)CC(CN4CCC(c6ccc7c(c6)n(C)c(=O)n7C6CCC(=O)NC6=O)CC4)C5)n3)cc2)cc1C#N (stereo not drawn) [Compound 113 trifluoroacetate, 3-chloro-5-(2-(4-((2-(2-((4-(1-(2,6-dioxopiperidin-3-yl)-3-methyl-2-oxo-2,3-dihydro-1H-benzo[d]imidazol-5-yl)piperidin-1-yl)methyl)-7-azaspiro[3.5]nonan-7-yl)pyrimidin-4-yl)methoxy)phenyl)propan-2-yl)-2-methoxybenzonitrile]
  IC50: 419 nM

## CN(CC1CCN(c2nccc(COc3ccc(C(C)(C)c4cc(Cl)cc(C#N)c4)cc3)n2)CC1)C1CCN(c2ccc3c(c2)n(C)c(=O)n3C2CCC(=O)NC2=O)CC1 (stereo not drawn) [Compound 114 trifluoroacetate, 3-chloro-5-(2-(4-((2-(4-(((1-(1-(2,6-dioxopiperidin-3-yl)-3-methyl-2-oxo-2,3-dihydro-1H-benzo[d]imidazol-5-yl)piperidin-4-yl)(methyl)amino)methyl)piperidin-1-yl)pyrimidin-4-yl)methoxy)phenyl)propan-2-yl)benzonitrile]
  IC50: 665 nM
